Source: US20150197497A1, “SELECTIVE INHIBITORS OF HISTONE DEACETYLASE ISOFORM 6 AND METHODS THEREOF” (DANA-FARBER CANCER INSTITUTE, INC., priority 2011, published 2015)

Tests used:
HDAC9 = target: T1, HDAC9 (Homo sapiens, UniProt Q9UKV0); assay: In vitro HDAC enzyme inhibition assay, HDAC9; assay type: biochemical; conditions: for HDAC9/HDAC6 in vitro selectivity: ratio of IC50 for HDAC9 relative to that of HDAC6; for IC50: recombinant full-length HDAC9, substrate MAZ1675 26 μM; for selectivity toward HDAC6 compared to HDAC9 (in words): tested in vitro
T1 construct: Recombinant, full-length HDAC protein (BPS Biosciences) was incubated with fluorophore conjugated substrate; purchased BPS Biosciences
T1 sequence (Q9UKV0 whole entry): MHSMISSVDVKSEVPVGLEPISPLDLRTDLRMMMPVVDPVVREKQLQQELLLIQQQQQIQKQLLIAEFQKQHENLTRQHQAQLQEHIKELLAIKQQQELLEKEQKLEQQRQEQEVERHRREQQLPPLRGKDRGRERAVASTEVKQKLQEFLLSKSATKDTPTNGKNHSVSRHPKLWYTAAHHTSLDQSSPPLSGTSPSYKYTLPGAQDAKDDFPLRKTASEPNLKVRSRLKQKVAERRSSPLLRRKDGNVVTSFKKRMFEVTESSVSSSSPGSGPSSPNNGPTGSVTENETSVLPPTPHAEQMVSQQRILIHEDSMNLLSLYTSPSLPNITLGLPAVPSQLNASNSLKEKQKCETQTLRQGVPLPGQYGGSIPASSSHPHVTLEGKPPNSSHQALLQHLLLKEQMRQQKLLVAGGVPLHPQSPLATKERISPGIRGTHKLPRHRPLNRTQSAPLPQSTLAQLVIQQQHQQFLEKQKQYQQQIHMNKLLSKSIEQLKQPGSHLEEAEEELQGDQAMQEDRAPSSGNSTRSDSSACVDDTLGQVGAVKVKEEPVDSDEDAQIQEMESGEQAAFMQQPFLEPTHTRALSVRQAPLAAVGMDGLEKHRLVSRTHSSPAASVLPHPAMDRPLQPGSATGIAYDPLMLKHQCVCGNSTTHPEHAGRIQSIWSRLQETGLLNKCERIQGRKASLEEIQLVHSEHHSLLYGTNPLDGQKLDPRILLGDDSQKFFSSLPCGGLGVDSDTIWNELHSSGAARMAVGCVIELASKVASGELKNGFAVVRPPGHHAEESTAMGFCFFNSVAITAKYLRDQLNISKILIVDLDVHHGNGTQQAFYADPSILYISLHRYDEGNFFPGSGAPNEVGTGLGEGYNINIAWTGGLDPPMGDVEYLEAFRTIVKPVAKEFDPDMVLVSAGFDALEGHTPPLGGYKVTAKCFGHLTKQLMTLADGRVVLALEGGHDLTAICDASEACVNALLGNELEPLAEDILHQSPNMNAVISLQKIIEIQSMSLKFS
Procedure: (§1) In vitro Histone Deacetylase enzyme assays were performed using Class I (isoforms: HDAC1, HDAC2, HDAC3 and HDAC8), class IIa (isoforms: HDAC4, HDAC5, HDAC7 and HDAC9) and class IIb (isoform HDAC6).
(§2) HDAC activities were determined in vitro with an optimized homogenous assay performed in a 384-well plate. Recombinant, full-length HDAC protein (BPS Biosciences) was incubated with fluorophore conjugated substrate, MAZ1600 and MAZ1675, at Km=[S]. […] Reactions were performed in assay buffer (50 mM HEPES, 100 mM KCl, 0.001% Tween-20, 0.05% BSA, 200 μM tris(2-carboxyethyl)phosphine (TCEP), pH 7.4) and followed for fluorogenic release of 7-amino-4-methylcoumarin from substrate upon deacetylase and trypsin enzymatic activity. Fluorescence measurements were obtained every five minutes using a multilabel plate reader and plate-stacker (Envision; Perkin-Elmer). Each plate was analyzed by plate repeat, and the first derivative within the linear range was imported into analytical software (Spotfire DecisionSite and GraphPad Prism). Replicate experimental data from incubations with inhibitor were normalized to controls.

HDAC8 = target: T2, HDAC8 (Homo sapiens, UniProt Q9BY41); assay: In vitro HDAC enzyme inhibition assay, HDAC8; assay type: biochemical; conditions: for HDAC8/HDAC6 in vitro selectivity: ratio of IC50 for HDAC8 relative to that of HDAC6; for IC50: recombinant full-length HDAC8, substrate MAZ1675 282 μM
T2 construct: Recombinant, full-length HDAC protein (BPS Biosciences) was incubated with fluorophore conjugated substrate; purchased BPS Biosciences
T2 sequence (Q9BY41 1-377): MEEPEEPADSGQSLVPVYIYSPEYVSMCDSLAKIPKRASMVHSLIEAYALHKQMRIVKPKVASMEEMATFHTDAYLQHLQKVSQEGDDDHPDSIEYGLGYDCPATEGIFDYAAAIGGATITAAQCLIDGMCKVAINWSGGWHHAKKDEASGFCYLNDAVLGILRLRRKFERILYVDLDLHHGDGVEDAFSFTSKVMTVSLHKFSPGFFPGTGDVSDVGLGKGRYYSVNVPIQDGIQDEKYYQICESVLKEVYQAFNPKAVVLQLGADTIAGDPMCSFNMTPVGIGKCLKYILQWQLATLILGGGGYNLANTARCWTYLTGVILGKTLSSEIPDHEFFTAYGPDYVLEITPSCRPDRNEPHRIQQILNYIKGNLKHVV
Procedure: as §1, §2

acetylated tubulin = assay: High-content image analysis of induction of acetylated tubulin in A549 cells; conditions: for EC50: Homo sapiens, A549, 8 h, read-out: EC50 for half-maximal induction of acetylated tubulin (AcTubulin); for AcHistone/AcTubulin in cell selectivity toward HDAC6: ratio of EC50 acetylated histone to EC50 acetylated tubulin
Procedure: (§3) Cells were treated with each test HDACi compound with an automated pin transfer instrument (Janus, Perkin Elmer) and incubated for 8 hours. […] Fixation solution was aspirated and 90 μL of washing solution (0.1% Triton X-100 in PBS) was added prior to 10 minute incubation at 4° C. Washing solution was aspirated and cells were incubated at 4° C. for about 1 hour in blocking solution (0.1% Triton X-100+2% BSA in PBS). Washing solution was aspirated, and cells were incubated for about 1 hour at 4° C. in primary antibody for acetylated-tubulin (Sigma T7451) and acetylated-histone (Cell Signaling #9441L) at a 1:1000 dilution in blocking solution. Primary antibody solution was aspirated, and cells were washed three times in 90 μL of washing solution. […] Secondary antibody and nuclear staining solution was aspirated and cells were washed three times in 90 μL of washing solution. After the third wash, 50 μL of PBS was added to each well. Image acquisition was done on a high content imaging microscope (ImageXpress Micro, Molecular Devices), and image analysis (MetaXpress, Molecular Devices) was performed to obtain average acetylated-tubulin and acetylated-histone signal per cell based on treatment. Replicate experimental data from incubations with inhibitor were normalized to DMSO controls.

HDAC5 = target: T3, HDAC5 (Homo sapiens, UniProt Q9UQL6); assay: In vitro HDAC enzyme inhibition assay, HDAC5; assay type: biochemical; conditions: for HDAC5/HDAC6 in vitro selectivity: ratio of IC50 for HDAC5 relative to that of HDAC6; for IC50: recombinant full-length HDAC5, substrate MAZ1675 40 μM; for selectivity toward HDAC6 compared to HDAC5 (in words): tested in vitro
T3 construct: Recombinant, full-length HDAC protein (BPS Biosciences) was incubated with fluorophore conjugated substrate; purchased BPS Biosciences
T3 sequence (Q9UQL6 whole entry): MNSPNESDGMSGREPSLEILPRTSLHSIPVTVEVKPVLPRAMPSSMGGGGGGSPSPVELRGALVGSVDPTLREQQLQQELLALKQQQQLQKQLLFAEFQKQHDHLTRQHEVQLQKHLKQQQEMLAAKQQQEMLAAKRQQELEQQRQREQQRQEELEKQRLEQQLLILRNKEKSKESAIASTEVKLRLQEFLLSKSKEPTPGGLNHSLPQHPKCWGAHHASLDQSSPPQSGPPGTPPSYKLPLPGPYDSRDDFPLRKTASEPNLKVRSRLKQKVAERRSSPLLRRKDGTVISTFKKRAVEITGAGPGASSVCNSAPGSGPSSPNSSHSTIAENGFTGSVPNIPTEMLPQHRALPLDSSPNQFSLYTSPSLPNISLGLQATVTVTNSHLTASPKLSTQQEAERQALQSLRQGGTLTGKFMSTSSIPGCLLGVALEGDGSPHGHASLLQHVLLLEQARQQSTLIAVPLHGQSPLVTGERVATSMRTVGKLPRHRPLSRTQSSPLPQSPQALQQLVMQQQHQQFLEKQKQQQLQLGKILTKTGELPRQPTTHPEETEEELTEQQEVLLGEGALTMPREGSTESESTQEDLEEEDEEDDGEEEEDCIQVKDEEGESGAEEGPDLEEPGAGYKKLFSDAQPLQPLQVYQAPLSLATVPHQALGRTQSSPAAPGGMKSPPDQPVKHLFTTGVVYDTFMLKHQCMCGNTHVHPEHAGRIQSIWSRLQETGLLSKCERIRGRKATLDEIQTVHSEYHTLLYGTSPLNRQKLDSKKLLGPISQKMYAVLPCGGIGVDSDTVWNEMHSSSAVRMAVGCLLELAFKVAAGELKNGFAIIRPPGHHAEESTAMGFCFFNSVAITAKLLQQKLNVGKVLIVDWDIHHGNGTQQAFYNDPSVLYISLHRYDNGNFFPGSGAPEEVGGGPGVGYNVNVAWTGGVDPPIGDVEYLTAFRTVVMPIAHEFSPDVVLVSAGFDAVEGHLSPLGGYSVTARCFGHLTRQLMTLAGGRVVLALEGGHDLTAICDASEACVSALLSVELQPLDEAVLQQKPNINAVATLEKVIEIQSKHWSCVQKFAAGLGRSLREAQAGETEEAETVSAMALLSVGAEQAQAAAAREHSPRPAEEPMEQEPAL
Procedure: as §1, §2

HDAC1 = target: T4, HDAC1 (Homo sapiens, UniProt Q13547); assay: In vitro HDAC enzyme inhibition assay, HDAC1; assay type: biochemical; conditions: for HDAC1/HDAC6 in vitro selectivity: ratio of IC50 for HDAC1 relative to that of HDAC6; for IC50: recombinant full-length HDAC1, substrate MAZ1600 21 μM
T4 construct: Recombinant, full-length HDAC protein (BPS Biosciences) was incubated with fluorophore conjugated substrate; purchased BPS Biosciences
T4 sequence (Q13547 whole entry): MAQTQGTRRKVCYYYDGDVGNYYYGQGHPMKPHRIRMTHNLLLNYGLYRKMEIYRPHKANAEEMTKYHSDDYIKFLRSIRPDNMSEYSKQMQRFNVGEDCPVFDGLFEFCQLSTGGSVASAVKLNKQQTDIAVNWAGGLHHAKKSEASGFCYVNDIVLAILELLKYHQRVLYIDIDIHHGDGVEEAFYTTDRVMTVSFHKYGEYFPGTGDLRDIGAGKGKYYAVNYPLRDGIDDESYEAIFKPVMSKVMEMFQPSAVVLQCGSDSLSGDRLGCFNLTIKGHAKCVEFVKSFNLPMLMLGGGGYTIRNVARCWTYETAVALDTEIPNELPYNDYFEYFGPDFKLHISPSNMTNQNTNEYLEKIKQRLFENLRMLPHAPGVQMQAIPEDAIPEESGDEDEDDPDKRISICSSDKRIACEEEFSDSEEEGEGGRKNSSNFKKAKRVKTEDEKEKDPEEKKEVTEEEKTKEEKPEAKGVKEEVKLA
Procedure: as §1, §2

HDAC4 = target: T5, HDAC4 (Homo sapiens, UniProt P56524); assay: In vitro HDAC enzyme inhibition assay, HDAC4; assay type: biochemical; conditions: for HDAC4/HDAC6 in vitro selectivity: ratio of IC50 for HDAC4 relative to that of HDAC6; for IC50: recombinant full-length HDAC4, substrate MAZ1675 10 μM; for selectivity toward HDAC6 compared to HDAC4 (in words): tested in vitro
T5 construct: Recombinant, full-length HDAC protein (BPS Biosciences) was incubated with fluorophore conjugated substrate; purchased BPS Biosciences
T5 sequence (P56524 whole entry): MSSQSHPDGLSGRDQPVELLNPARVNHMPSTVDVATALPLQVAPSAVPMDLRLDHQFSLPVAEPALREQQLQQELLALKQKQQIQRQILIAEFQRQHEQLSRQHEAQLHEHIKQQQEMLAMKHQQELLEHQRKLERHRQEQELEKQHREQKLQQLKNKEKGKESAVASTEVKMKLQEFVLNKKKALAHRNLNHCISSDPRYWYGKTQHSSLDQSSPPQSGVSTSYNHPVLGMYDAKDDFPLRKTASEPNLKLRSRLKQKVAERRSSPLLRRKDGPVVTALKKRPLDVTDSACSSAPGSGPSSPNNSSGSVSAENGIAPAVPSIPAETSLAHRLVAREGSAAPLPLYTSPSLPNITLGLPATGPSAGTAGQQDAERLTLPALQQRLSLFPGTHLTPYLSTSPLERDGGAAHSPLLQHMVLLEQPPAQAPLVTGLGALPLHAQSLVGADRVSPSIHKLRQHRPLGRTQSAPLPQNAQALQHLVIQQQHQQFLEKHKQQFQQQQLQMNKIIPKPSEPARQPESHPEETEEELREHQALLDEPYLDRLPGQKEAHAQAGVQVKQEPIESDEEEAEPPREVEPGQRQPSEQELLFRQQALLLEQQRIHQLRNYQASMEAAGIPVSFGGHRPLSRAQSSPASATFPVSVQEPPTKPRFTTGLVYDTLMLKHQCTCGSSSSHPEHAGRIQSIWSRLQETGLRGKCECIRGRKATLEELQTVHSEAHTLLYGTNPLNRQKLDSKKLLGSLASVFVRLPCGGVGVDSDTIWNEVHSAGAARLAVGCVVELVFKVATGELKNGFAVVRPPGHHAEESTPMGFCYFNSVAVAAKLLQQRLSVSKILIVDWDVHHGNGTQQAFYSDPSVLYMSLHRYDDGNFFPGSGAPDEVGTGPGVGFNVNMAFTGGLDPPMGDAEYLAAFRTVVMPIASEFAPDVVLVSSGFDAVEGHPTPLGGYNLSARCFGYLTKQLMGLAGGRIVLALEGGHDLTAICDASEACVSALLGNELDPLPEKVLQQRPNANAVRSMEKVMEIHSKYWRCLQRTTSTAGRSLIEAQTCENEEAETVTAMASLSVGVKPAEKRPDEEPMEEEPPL
Procedure: as §1, §2

HDAC3 = target: T6, HDAC3 (Homo sapiens, UniProt O15379); assay: In vitro HDAC enzyme inhibition assay, HDAC3; assay type: biochemical; conditions: for HDAC3/HDAC6 in vitro selectivity: ratio of IC50 for HDAC3 relative to that of HDAC6; for IC50: recombinant full-length HDAC3, substrate MAZ1600 9 μM
T6 construct: Recombinant, full-length HDAC protein (BPS Biosciences) was incubated with fluorophore conjugated substrate; purchased BPS Biosciences
T6 sequence (O15379 whole entry): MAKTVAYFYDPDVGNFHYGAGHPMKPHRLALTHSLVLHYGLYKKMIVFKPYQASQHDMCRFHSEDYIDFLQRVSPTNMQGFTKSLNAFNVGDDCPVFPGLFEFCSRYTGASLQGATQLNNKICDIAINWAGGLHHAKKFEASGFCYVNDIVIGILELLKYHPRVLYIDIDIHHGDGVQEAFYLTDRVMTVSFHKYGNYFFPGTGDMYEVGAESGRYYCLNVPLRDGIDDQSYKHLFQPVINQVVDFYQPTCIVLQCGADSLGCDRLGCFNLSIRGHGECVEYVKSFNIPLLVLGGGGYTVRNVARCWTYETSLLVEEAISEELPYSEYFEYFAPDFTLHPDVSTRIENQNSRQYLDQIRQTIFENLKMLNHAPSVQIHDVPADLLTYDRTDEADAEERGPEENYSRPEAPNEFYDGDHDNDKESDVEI
T6 sequence (Q9Y618 395-489 partner limits assumed): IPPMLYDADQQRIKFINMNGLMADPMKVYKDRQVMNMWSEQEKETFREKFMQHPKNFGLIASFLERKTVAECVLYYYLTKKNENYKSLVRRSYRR
Procedure: as §1, §2

acetylated histones = assay: High-content image analysis of induction of acetylated histones in A549 cells; conditions: for EC50: Homo sapiens, A549, 8 h, read-out: EC50 for half-maximal induction of acetylated histones (AcHistone)
Procedure: as §3

HDAC6 = target: T7, HDAC6 (Homo sapiens, UniProt Q9UBN7); assay: In vitro HDAC enzyme inhibition assay, HDAC6; assay type: biochemical; conditions: recombinant full-length HDAC6, substrate MAZ1600 9 μM
T7 construct: Recombinant, full-length HDAC protein (BPS Biosciences) was incubated with fluorophore conjugated substrate; purchased BPS Biosciences
T7 sequence (Q9UBN7 1-1215): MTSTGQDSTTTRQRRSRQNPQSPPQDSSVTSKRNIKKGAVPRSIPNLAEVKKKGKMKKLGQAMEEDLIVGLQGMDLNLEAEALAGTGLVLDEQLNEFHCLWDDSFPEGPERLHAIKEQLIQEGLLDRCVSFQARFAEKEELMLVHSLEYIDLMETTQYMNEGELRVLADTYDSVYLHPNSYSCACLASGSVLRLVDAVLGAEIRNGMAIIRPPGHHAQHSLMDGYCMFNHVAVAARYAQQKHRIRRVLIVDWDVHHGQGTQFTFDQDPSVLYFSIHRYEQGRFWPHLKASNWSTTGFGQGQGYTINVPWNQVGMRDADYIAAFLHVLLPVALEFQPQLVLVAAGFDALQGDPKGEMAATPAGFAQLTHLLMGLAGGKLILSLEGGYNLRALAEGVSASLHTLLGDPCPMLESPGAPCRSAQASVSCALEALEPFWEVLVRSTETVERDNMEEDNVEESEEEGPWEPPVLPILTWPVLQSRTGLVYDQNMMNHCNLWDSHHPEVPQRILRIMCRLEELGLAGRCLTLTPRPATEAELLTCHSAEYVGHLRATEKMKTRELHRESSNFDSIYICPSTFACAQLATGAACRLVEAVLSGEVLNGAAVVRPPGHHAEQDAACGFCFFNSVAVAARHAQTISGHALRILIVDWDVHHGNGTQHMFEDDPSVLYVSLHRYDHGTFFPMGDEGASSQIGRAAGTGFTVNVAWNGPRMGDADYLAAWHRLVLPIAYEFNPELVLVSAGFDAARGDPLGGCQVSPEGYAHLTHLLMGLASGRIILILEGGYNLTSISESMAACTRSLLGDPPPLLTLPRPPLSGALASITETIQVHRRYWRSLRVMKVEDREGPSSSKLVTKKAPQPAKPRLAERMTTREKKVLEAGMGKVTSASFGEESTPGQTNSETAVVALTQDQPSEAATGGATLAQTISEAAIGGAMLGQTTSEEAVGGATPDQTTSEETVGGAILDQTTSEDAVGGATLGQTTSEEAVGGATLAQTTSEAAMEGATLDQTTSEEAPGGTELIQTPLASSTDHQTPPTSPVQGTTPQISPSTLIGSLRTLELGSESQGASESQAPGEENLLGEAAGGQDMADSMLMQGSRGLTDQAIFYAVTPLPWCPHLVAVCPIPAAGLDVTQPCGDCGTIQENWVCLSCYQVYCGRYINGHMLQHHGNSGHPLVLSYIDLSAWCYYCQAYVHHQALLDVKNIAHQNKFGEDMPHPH
Method in brief: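 Full-length recombinant enzyme + MAZ1600/MAZ1675 substrate at [S]=Km, HEPES/KCl/Tween-20/BSA/TCEP buffer pH 7.4; AMC fluorescence via deacetylase + trypsin, kinetic read q5 min; slope in linear range normalized to controls.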

HDAC9/HDAC6 in vitro selectivity (HDAC9)	IC50 (HDAC9) [nM]	HDAC8/HDAC6 in vitro selectivity (HDAC8)	IC50 (HDAC8) [nM]	EC50 (acetylated tubulin) [nM]	HDAC5/HDAC6 in vitro selectivity (HDAC5)	IC50 (HDAC5) [nM]	HDAC1/HDAC6 in vitro selectivity (HDAC1)	IC50 (HDAC1) [nM]	HDAC4/HDAC6 in vitro selectivity (HDAC4)	IC50 (HDAC4) [nM]	HDAC3/HDAC6 in vitro selectivity (HDAC3)	IC50 (HDAC3) [nM]	EC50 (acetylated histones) [nM]	IC50 (HDAC6) [nM]	Structure (SMILES)	selectivity toward HDAC6 compared to HDAC9 (in words) (HDAC9)	AcHistone/AcTubulin in cell selectivity toward HDAC6 (acetylated tubulin; A549 cells)	selectivity toward HDAC6 compared to HDAC5 (in words) (HDAC5)	selectivity toward HDAC6 compared to HDAC4 (in words) (HDAC4)	further results
114680	712	48637	302	48.5	122813	762	1951	12.1	229041	1420	2366	14.7	~629	0.00621	O=C(NO)c1ccc(Cn2c(=O)[nH]c3cc(C(F)(F)F)ccc32)cc1 [B6, N-hydroxy-4-((2-oxo-5-(trifluoromethyl)-2,3-dihydro-1H-benzo[d]imidazol-1-yl)methyl)benzamide]	exceptionally high selectivity (Inhibitors with in vitro selectivity values for HDAC6 of at least 30,000 are considered to have exceptionally high selectivity toward HDAC6)	12.98	exceptionally high selectivity (Inhibitors with in vitro selectivity values for HDAC6 of at least 30,000 are considered to have exceptionally high selectivity toward HDAC6)	exceptionally high selectivity (Inhibitors with in vitro selectivity values for HDAC6 of at least 30,000 are considered to have exceptionally high selectivity toward HDAC6)	levels of acetylated tubulin, dose response (in words) (acetylated tubulin; A549 cells, FIG. 11): dose-dependent increase; levels of acetylated histone, dose response (in words) (acetylated histones; A549 cells, FIG. 11): absence of the dose-dependent response
42107	1090	16483	425	150	48751	1260	2113	54.5	60319	1560	4479	115	2300	0.0258	O=C(NO)c1ccc(Cn2nnc3cc(Br)ccc32)cc1 [C5, 4-((5-bromo-1H-benzo[d][1,2,3]triazol-1-yl)methyl)-N-hydroxybenzamide]	exceptionally high selectivity (Inhibitors with in vitro selectivity values for HDAC6 of at least 30,000 are considered to have exceptionally high selectivity toward HDAC6)	15.37	exceptionally high selectivity (Inhibitors with in vitro selectivity values for HDAC6 of at least 30,000 are considered to have exceptionally high selectivity toward HDAC6)	exceptionally high selectivity (Inhibitors with in vitro selectivity values for HDAC6 of at least 30,000 are considered to have exceptionally high selectivity toward HDAC6)	
16631	1630	6573	643	159	9794	958	2695	264	17962	1760	4791	469	232	0.0979	O=C(NO)c1ccc(Cn2cnc3ccccc32)cc1 [A7]		1.459			
2127	1220	2540	1460	77.3	486	279	812	466	1901	1090	3126	1790	592	0.574	O=C(NO)c1ccc(Cn2c(C(F)(F)F)nc3cc(F)ccc32)cc1 [A3, 4-((5-fluoro-2-(trifluoromethyl)-1H-benzo[d]imidazol-1-yl)methyl)-N-hydroxybenzamide]		7.664			
